Measurements taken from US4613603A, “Compounds with a nitrogen-containing heterocyclic nucleus, and drugs in which they are present” (Sanofi, priority 1984, dated 1986).
Counter-ions that a name gives are not always drawn. Like-named read-outs stand apart in the source and are kept apart here.

Key:
[1] = test system: convulsions induced by an electric shock; test: Antagonism towards the convulsions induced by an electric shock; assay type: in vivo; settings: Mus musculus, po, 1 h; mice, administered orally 60 minutes before the electric shock; confidence limits in brackets (p ≤ 0.05); read-out: Median effective dose (ED50) for antagonism towards electric shock
Experimental: (§1) The anticonvulsant effect of the products on mice was evaluated on a model involving convulsions caused by an electric shock and on a model involving convulsions induced by a chemical agent: bicuculline.
The test was a slightly modified version of that of SWINYARD et al. [Journal of Pharmacology and Experimental Therapeutics 106, 319-330 (1952)] and ASAMI et al. [Arzneimittel Forschung 24(10), 1563-1568 (1974)]. The equipment consisted of a Racia shock generator fitted with 2 ocular electrodes delivering a current at 12.5 volts for 0.3 second. The groups consisted of 10 CDI Charles River mice weighing between 20 and 24 g.
The products were administered orally 60 minutes before the electric shock.

bicuculline = test: Antagonism towards the convulsions and the mortality caused by bicuculline; assay type: in vivo, mice; settings: Mus musculus, po, 1 h
Experimental: as §1
The groups consisted of 10 CDI Charles River mice weighing between 20 and 22 g. The products were administered orally 60 minutes before the bicuculline (0.8 mg/kg, administered intravenously).

[2] = Determination of the lethal dose in mice after acute administration; settings: mouse, in vivo, po, administered orally, read-out: Percent toxicity (percentage of animals which die within 72 hours)
Experimental: The products were administered orally to groups of 5 female CDI Charles River mice weighing between 20 and 24 g. They were solubilized in 0.1N HCl. The toxicity was recorded for 72 hours following the administration of the products.
The results, expressed as the percentage of animals which die within 72 hours following oral administration of the products, are given in the table above.

[3] = test system: contortional movements caused by the administration of acetic acid; test: Analgesic activity, KOSTER test (acetic acid contortions); assay type: in vivo; settings: mice, 25 mg/kg administered orally 30 minutes before i.p. acetic acid
Experimental: The analgesic activity of the products according to the invention was evaluated using the KOSTER test (Federation Proceeding 18, 41 (1959)).
The products were administered orally to mice 30 minutes before the intraperitoneal injection of 0.25 ml of 0.1N acetic acid dissolved in 10% gum arabic. The contortions between the fifth and tenth minute and between the fifteenth and twentieth minute after administration of the acid were counted for the control animals and the treated animals.

[4] = test system: mortality following the injection of collagen; test: Antithrombotic activity, mortality following the injection of collagen; assay type: in vivo; settings: mice, 200 mg/kg, administered orally
[5] = read-out: Median effective dose (ED50) for antagonism towards bicuculline, Mortality
[6] = read-out: Median effective dose (ED50) for antagonism towards bicuculline, Tonic convulsions

OC1CCN(c2ncc(-c3cccc4ccccc34)cn2)CC1 [SR 43 139, 5-(naphthyl-1)-2-(4-hydroxypiperidino)pyrimidine]
ED50 [1]: 43 mg/kg | ED50 (bicuculline; [5]): 44 mg/kg | ED50 (bicuculline; [6]): 46 mg/kg | mortality at 72 h ([2]; 250 mg/kg): 0% | mortality at 72 h ([2]; 500 mg/kg): 0% | mortality at 72 h ([2]; 1000 mg/kg): 0%

OC1CCN(c2ncc(-c3ccc(Cl)cc3Cl)cn2)CC1 [SR 42 824, 5-(2,4-dichlorophenyl)-2-(4-hydroxypiperidino)pyrimidine]
ED50 [1]: 20 mg/kg | ED50 (bicuculline; [5]): 8 mg/kg | ED50 (bicuculline; [6]): 9.4 mg/kg | mortality at 72 h ([2]; 250 mg/kg): 0% | mortality at 72 h ([2]; 500 mg/kg): 0% | Antagonism towards the contortional movements (percent/control animals) [3]: -80%

CN(C)C(=O)OC1CCN(c2ncc(-c3ccc(Cl)cc3Cl)cn2)CC1 [SR 43 539, 2-(4-Dimethylcarbamoyloxypiperidino)-5-(2,4-dichlorophenyl)pyrimidine]
ED50 [1]: 2.5 mg/kg | ED50 (bicuculline; [5]): 0.7 mg/kg | ED50 (bicuculline; [6]): 1.1 mg/kg

COc1ccc(-c2cnc(N3CCC(O)CC3)nc2)cc1 [SR 43 159, 5-(4-methoxyphenyl)-2-(4-hydroxypiperidino)pyrimidine]
ED50 [1]: 83 mg/kg | ED50 (bicuculline; [5]): 60 mg/kg | ED50 (bicuculline; [6]): 70 mg/kg | mortality at 72 h ([2]; 250 mg/kg): 0% | mortality at 72 h ([2]; 500 mg/kg): 0% | mortality at 72 h ([2]; 1000 mg/kg): 0%

CNC(=O)OC1CCN(c2ncc(-c3ccccc3Cl)cn2)CC1 [SR 43 543, 2-(4-Methylcarbamoyloxypiperidino)-5-(2-chlorophenyl)pyrimidine]
ED50 [1]: 19 mg/kg | ED50 (bicuculline; [5]): 3.9 mg/kg | ED50 (bicuculline; [6]): 4.3 mg/kg | mortality at 72 h ([2]; 250 mg/kg): 0% | mortality at 72 h ([2]; 500 mg/kg): 0% | mortality at 72 h ([2]; 1000 mg/kg): 20%

O=C1CCN(c2ncc(-c3ccc(Cl)cc3Cl)nn2)CC1 [SR 42 826, 6-(2,4-Dichlorophenyl)-3-(4-oxopiperidino)-1,2,4-triazine]
ED50 [1]: 26 mg/kg | ED50 (bicuculline; [5]): 3.4 mg/kg | ED50 (bicuculline; [6]): 3.2 mg/kg | mortality at 72 h ([2]; 250 mg/kg): 0% | mortality at 72 h ([2]; 500 mg/kg): 20% | Antagonism towards the contortional movements (percent/control animals) [3]: -42%

CC(=O)OC1CCN(c2ncc(-c3ccc(Cl)cc3Cl)cn2)CC1 [SR 43 651, 2-(4-Acetoxypiperidino)-5-(2,4-dichlorophenyl)pyrimidine]
ED50 [1]: 43 mg/kg | ED50 (bicuculline; [5]): 15.5 mg/kg | ED50 (bicuculline; [6]): 17.2 mg/kg

OC1CCN(c2ncc(-c3cccc(Cl)c3)cn2)CC1 [SR 42 922, 5-(3-chlorophenyl)-2-(4-hydroxypiperidino)pyrimidine]
mortality at 72 h ([2]; 250 mg/kg): 0% | mortality at 72 h ([2]; 500 mg/kg): 0% | mortality at 72 h ([2]; 1000 mg/kg): 0%

OC1CCN(c2ccc(-c3ccc(Cl)cc3Cl)cn2)CC1 [SR 42 903, 5-(2,4-Dichlorophenyl)-2-(4-hydroxypiperidino)pyridine]
ED50 [1]: 28 mg/kg

O=C1CCN(c2ncc(-c3ccccc3Cl)nn2)CC1 [SR 42 642, 6-(2-Chlorophenyl)-3-(4-oxopiperidino)-1,2,4-triazine]
ED50 [1]: 40 mg/kg | mortality at 72 h ([2]; 250 mg/kg): 0% | mortality at 72 h ([2]; 500 mg/kg): 0%

OC1CCN(c2cnc(-c3ccc(Cl)cc3)nn2)CC1 [SR 42 833, 3-(4-Chlorophenyl)-6-(4-hydroxypiperidino)-1,2,4-triazine]
mortality at 72 h ([2]; 250 mg/kg): 0% | mortality at 72 h ([2]; 500 mg/kg): 0% | Antagonism towards the contortional movements (percent/control animals) [3]: -31%

OC1CCN(c2ncc(-c3ccccc3Cl)nn2)CC1 [SR 42 524, 6-(2-Chlorophenyl)-3-(4-hydroxypiperidino)-1,2,4-triazine]
ED50 [1]: 24 mg/kg | Protection from mortality following the injection of collagen [4]: protected mice from mortality following the injection of collagen | ED50 (bicuculline; [5]): 72 mg/kg | ED50 (bicuculline; [6]): 71 mg/kg | mortality at 72 h ([2]; 250 mg/kg): 0% | mortality at 72 h ([2]; 500 mg/kg): 0% | mortality at 72 h ([2]; 1000 mg/kg): 0%

O=C1CCN(c2ccc(-c3ccccc3Cl)cn2)CC1 [SR 42 696, 5-(2-Chlorophenyl)-2-(4-oxopiperidino)pyridine acid maleate]
mortality at 72 h ([2]; 250 mg/kg): 0% | mortality at 72 h ([2]; 500 mg/kg): 0%

OC1CCN(c2ncc(-c3ccccc3Cl)cn2)CC1 [SR 42 505, 5-(2-Chlorophenyl)-2-(4-hydroxypiperidino)pyrimidine]
ED50 [1]: 42 mg/kg | ED50 (bicuculline; [5]): 54 mg/kg | ED50 (bicuculline; [6]): 52 mg/kg | mortality at 72 h ([2]; 250 mg/kg): 0% | mortality at 72 h ([2]; 500 mg/kg): 0% | mortality at 72 h ([2]; 1000 mg/kg): 80% | Antagonism towards the contortional movements (percent/control animals) [3]: -36%

OC1CCN(c2cnc(-c3cccc(Cl)c3)nn2)CC1 [SR 42 904, 3-(3-Chlorophenyl)-6-(4-hydroxypiperidino)-1,2,4-triazine]
ED50 [1]: 59 mg/kg | mortality at 72 h ([2]; 250 mg/kg): 0% | mortality at 72 h ([2]; 500 mg/kg): 0%

CN(C)C(=O)OC1CCN(c2ncc(-c3ccccc3Cl)cn2)CC1 [SR 43 537, 2-(4-dimethylcarbamoyloxypiperidino)-5-(2-chlorophenyl)pyrimidine]
ED50 [1]: 2.5 mg/kg | ED50 (bicuculline; [5]): 3 mg/kg | ED50 (bicuculline; [6]): 3.3 mg/kg

OC1CCN(c2ccc(-c3ccccc3Cl)cn2)CC1 [SR 42 482, 5-(2-Chlorophenyl)-2-(4-hydroxypiperidino)-pyridine acid maleate]
mortality at 72 h ([2]; 250 mg/kg): 0% | mortality at 72 h ([2]; 500 mg/kg): 0% | mortality at 72 h ([2]; 1000 mg/kg): 0% | Antagonism towards the contortional movements (percent/control animals) [3]: -50%

OC1CCN(c2ncc(-c3ccc(Cl)cc3Cl)nn2)CC1 [SR 42 825, 6-(2,4-Dichlorophenyl)-3-(4-hydroxypiperidino)-1,2,4-triazine]
ED50 [1]: 16 mg/kg | ED50 (bicuculline; [5]): 3.3 mg/kg | ED50 (bicuculline; [6]): 3.1 mg/kg | mortality at 72 h ([2]; 250 mg/kg): 20% | mortality at 72 h ([2]; 500 mg/kg): 20% | mortality at 72 h ([2]; 1000 mg/kg): 80% | Antagonism towards the contortional movements (percent/control animals) [3]: -57%

OC1CCN(c2ncc(-c3ccc(Cl)cc3)cn2)CC1 [SR 42 921, 5-(4-chlorophenyl)-2-(4-hydroxypiperidino)pyrimidine]
mortality at 72 h ([2]; 250 mg/kg): 0% | mortality at 72 h ([2]; 500 mg/kg): 0%

O=C(OC1CCN(c2ncc(-c3ccccc3Cl)cn2)CC1)N1CCC(O)CC1 [SR 43 516, 2-[4-(4-hydroxypiperidinocarbonyloxy)piperidino]-5-(2-chlorophenyl)pyrimidine]
ED50 [1]: 91 mg/kg | mortality at 72 h ([2]; 250 mg/kg): 0% | mortality at 72 h ([2]; 500 mg/kg): 0% | mortality at 72 h ([2]; 1000 mg/kg): 0%
